Experimental data as given in patent US20250230190A1, “COMPOSITION FOR ENHANCING ACTIVITY OF NATURAL KILLER CELLS” (Ingenium Therapeutics, priority 2021, published 2025).
Where no end group is shown, it is not given here.

What was measured:
NK92 cells [1] = experiment: Fratricide inhibition of NK cells; type: cell-based; settings: NK92 target cells pretreated with 20 μM peptide or 5 μM SB431542 plus 10 ng/ml TGF-β; fresh NK92 (20:1) or primary NK (10:1) effector cells; 4 hours
Experimental: To this end, 1×10^6 cells/ml of the NK92 cells cultured in the same manner as Example [2-1] were cultured for 1 hour at 37° C. with a culture medium added with 5 μl of calcein-AM (Invitrogen) and stained, and then centrifuged at 1000 rpm for 5 minutes and washed to be prepared as ‘target cells.’ As described above, the target cells stained with calcein-AM were dispensed in a 96-well plate, respectively, and treated with untreated (fresh) NK92 cells or primary NK cells as effector cells at the ratio of 20:1 or 10:1 in the same manner as Example [2-3], and cultured at 37° C. for 4 hours. The culture medium cultured above was centrifuged at 100 rcf for 5 minutes to separate the supernatant, and 100 μl each was dispensed into a 96-well black plate, and then ELISA assay (Fluorescence 480 nm/530 nm, SpectraMax i3x Molecular Device) was performed.

[2] = system: H460 lung cancer cell line; experiment: Recovery of sensitivity of NK cells to cancer cells decreased by TGF-β; type: cell-based; settings: H460 target cells pretreated with 20 μM peptide or 5 μM SB431542 plus 10 ng/ml TGF-β; fresh NK92 effector cells, E:T 20:1; 4 hours
Experimental: To this end, first, 1×10^5 cells/ml of a H460 lung cancer cell line was added with 20 μM the peptide of Example [1-5] or 5 μM a TGF-β signal inhibitor SB431542, respectively, cultured at 37° C. for 2 hours, and then added with 10 ng/ml of TGF-β, and cultured again for 24 hours under the same conditions, respectively. Then, the cells were added with 20 μM the peptide of Example [1-5] or 5 μM SB431542, cultured at 37° C. for 2 hours, and then added with 10 ng/ml of TGF-β, and cultured under the same conditions for 24 hours, respectively. 1×10^6 cells/ml of the H460 cells cultured above were cultured for 1 hour at 37° C. with a culture medium added with 5 μl of calcein-AM (Invitrogen) and stained, and then centrifuged at 1000 rpm for 5 minutes and washed to be prepared as ‘target cells.’
As described above, the target cells stained with calcein-AM were dispensed in a 96-well plate, respectively, and treated with untreated (fresh) NK92 cells as effector cells at an E:T ratio of 20:1, and cultured at 37° C. for 4 hours. The culture medium cultured above was centrifuged at 100 rcf for 5 minutes to separate the supernatant, and 100 μl each was dispensed into a 96-well black plate, and then ELISA assay (Fluorescence 480 nm/530 nm, SpectraMax i3x Molecular Device) was performed.

NK92 cells [3] = experiment: Recovery of cytotoxicity of NK92 cells decreased by TGF-β (calcein-AM release); type: cell-based; settings: effector NK92 cells pretreated with 20 μM peptide or 5 μM SB431542 plus 10 ng/ml TGF-β; target cells H460, H3122, K562; E:T 20:1; 4 hours
Experimental: NK92 cells were cultured in a 37° C. CO2 incubator (water jacketed incubator, Thermo electron corporation) supplied with 5% CO2 by adding an α-MEM (Welgene) culture medium added with 12.5% fetal bovine serum (FBS, Corning, united states origin, 35-015-CV) and 12.5% horse serum (Gibco) according to ATCC culture conditions with 0.2 mM myo-inositol, 0.1 mM 2-mercaptoethanol, 0.02 mM folic acid, 1% antibiotics-antimycotic (Gibco) and IL-2 cytokine (Peprotech) at a concentration of 20 ng/ml to be used as a culture medium.
The cells were cultured in about 20 to 30 ml in a T-75 flask (Thermo) at a concentration of 1×10^5 cells/ml, and centrifuged at 1000 rpm for 5 minutes every 2 to 3 days using a centrifuge (Beckman Coulter) to remove the supernatant, and then the culture medium was replaced. […]
The target cells stained with calcein-AM in Example [2-2] were dispensed in a 96-well plate, respectively, and treated with the effector cells prepared in Example [2-1]. […] The culture medium cultured above was centrifuged at 100 rcf for 5 minutes to separate the supernatant, and 100 μl each was dispensed into a 96-well black plate, and then ELISA assay (Fluorescence 480 nm/530 nm, SpectraMax i3x Molecular Device) was performed.

primary NK cells = experiment: Recovery of cytotoxicity of primary NK cells decreased by TGF-β (calcein-AM release); type: cell-based, human; settings: effector primary NK cells pretreated with 20 μM peptide plus 10 ng/ml TGF-β; target cells H460, H3122, K562; E:T 10:1; 4 hours
Experimental: 2 μl of Rosettesep Human CD3 depletion cocktail (STEMCELL technologies, catalog #15621) per 1 ml of blood was added to umbilical cord blood (IRB approval number P01-201610-31-002) donated from the hospital and reacted for 20 minutes. […] At this time, it could be noted that the blood and the Ficoll layer were not mixed. To separate the cell layer from the blood, red blood cells and CD3 cells were isolated and discharged from the blood by centrifugation under conditions of 2000 rpm and Decel 0 for 25 minutes using a centrifuge (Beckman Coulter). The CD3-isolated cells reacted with 10 ml of an ACK buffer for 10 minutes to remove remaining red blood cells, and then washed twice using phosphate-buffered saline (PBS) added with 2% FBS. The washing was performed by centrifuging at 1500 rpm for 5 minutes using a centrifuge (Beckman Coulter) to remove the supernatant. The cells obtained above were used to be cultured as NK cells.
The NK cells were cultured by adding alpha-MEM (Welgene) added with 10% FBS (Corning, United States origin, 35-015-CV) with 10 ng/ml IL-15 (Peprotech), 10 ng/ml IL-21 (Peprotech), […] hydrocortisone (Peprotech) and 1% antibiotics-antimycotic (Gibco). […]

NC(=O)c1ccc(-c2nc(-c3ccc4c(c3)OCO4)c(-c3ccccn3)[nH]2)cc1 [SB431542]
fratricide activity of the NK cells (NK92 cells [1]): significantly reduced | cytotoxicity of the NK cells for treated H460 cells [2]: recovered again | cytotoxicity of NK92 cells (NK92 cells [3]): recovered

GSKKVILDLPLVI [peptide of Example [1-5]]
cytotoxicity of the NK cells for treated H460 cells [2]: recovered again | cytotoxicity of NK92 cells (NK92 cells [3]): recovered | cytotoxicity of primary NK cells (primary NK cells): equally confirmed
